Where “and” joins values, the source holds several entries; their conditions need not be identical. Equal values may be shown once.
Target: T1, mouse Mfsd2a (Mus musculus, UniProt Q9DA75)
T1 construct: expressed in transfected cells; host or cells: HEK293
T1 sequence (Q9DA75 1-534): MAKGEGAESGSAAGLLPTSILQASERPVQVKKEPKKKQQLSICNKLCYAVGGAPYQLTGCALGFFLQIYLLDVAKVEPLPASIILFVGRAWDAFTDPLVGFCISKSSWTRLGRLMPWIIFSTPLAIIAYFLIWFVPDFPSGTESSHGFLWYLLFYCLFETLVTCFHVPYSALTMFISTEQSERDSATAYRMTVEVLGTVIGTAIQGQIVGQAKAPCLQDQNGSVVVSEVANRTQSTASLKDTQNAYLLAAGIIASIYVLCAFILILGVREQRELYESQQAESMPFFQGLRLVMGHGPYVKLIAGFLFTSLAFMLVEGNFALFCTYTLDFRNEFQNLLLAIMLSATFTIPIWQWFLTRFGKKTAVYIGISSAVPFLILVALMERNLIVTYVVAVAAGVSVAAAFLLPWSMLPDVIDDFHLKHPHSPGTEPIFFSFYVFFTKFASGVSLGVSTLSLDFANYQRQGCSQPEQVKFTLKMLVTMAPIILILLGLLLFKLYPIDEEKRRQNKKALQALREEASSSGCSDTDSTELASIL
Assay: Cell-based free fatty acid transport/uptake in Mfsd2a expressing HEK293 cells (mass spectrometry, TLC; Table 1)
Conditions: Mfsd2a HEK293 cells, 100 uM fatty acid/BSA overnight
In short: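 HEK293 cells expressing mouse Mfsd2a, or mock controls, were incubated overnight with 100 μM BSA-complexed fatty acids. Lipids were extracted in hexane:isopropanol (3:2) and phospholipid species quantified by HPLC-MS/MS against spiked internal standards. For TLC, cells received 100 μM [^14C]-oleate overnight, and phospholipids and neutral lipids were resolved.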

What does the source list for `CCCCCCCCCCCCCCCC(=O)O` [Palmitic acid]?
PE34p:2 in total phospholipid: 0.2893 mol percent and 0.2458 mol percent and 0.4295 mol percent; PE36:1 in total phospholipid: 1.713 mol percent and 1.465 mol percent and 1.861 mol percent; PE36:2 in total phospholipid: 2.152 mol percent and 2.192 mol percent and 2.267 mol percent; PE36:3 in total phospholipid: 0.4629 mol percent and 0.5112 mol percent and 0.4773 mol percent; PE36:4 in total phospholipid: 0.3125 mol percent and 0.2556 mol percent and 0.346 mol percent; PE36p:1 in total phospholipid: 0.5555 mol percent and 0.4227 mol percent and 0.5608 mol percent; PE36p:2 in total phospholipid: 0.7869 mol percent and 0.5996 mol percent and 0.6801 mol percent; PE36p:3 in total phospholipid: 0.8448 mol percent and 0.8061 mol percent and 1.169 mol percent; PE36p:4 in total phospholipid: 1.273 mol percent and 1.14 mol percent and 1.432 mol percent; PE38:1 in total phospholipid: 0.4976 mol percent and 0.3342 mol percent and 0.5727 mol percent; PE38:2 in total phospholipid: 0.3125 mol percent and 0.3342 mol percent and 0.3579 mol percent; PE38:3 in total phospholipid: 0.6133 mol percent and 0.6685 mol percent and 0.6204 mol percent; PE38:4 in total phospholipid: 0.9026 mol percent and 0.9732 mol percent and 1.301 mol percent; PE38:5 in total phospholipid: 0.486 mol percent and 0.4227 mol percent and 0.5488 mol percent; PE38:6 in total phospholipid: 0.2083 mol percent and 0.1081 mol percent and 0.1432 mol percent; PE38:7 in total phospholipid: 0.08101 mol percent and 0.07864 mol percent and 0.04773 mol percent; PE38p:0 in total phospholipid: 0.1273 mol percent and 0.118 mol percent and 0.1074 mol percent; PE38p:1 in total phospholipid: 0.1504 mol percent and 0.1769 mol percent and 0.2744 mol percent; PE38p:2 in total phospholipid: 0.3935 mol percent and 0.2359 mol percent and 0.3937 mol percent; PE38p:3 in total phospholipid: 0.9721 mol percent and 0.8651 mol percent and 0.9426 mol percent; PE38p:4 in total phospholipid: 0.9142 mol percent and 0.9437 mol percent and 1.086 mol percent; PE38p:5 in total phospholipid: 0.9489 mol percent and 0.7569 mol percent and 0.8591 mol percent; PE38p:6 in total phospholipid: 1.215 mol percent and 1.298 mol percent and 1.348 mol percent; PE40:3 in total phospholipid: 0.08101 mol percent and 0.0983 mol percent and 0.1074 mol percent; PE40:4 in total phospholipid: 0.1157 mol percent and 0.118 mol percent and 0.1909 mol percent; PE40:5 in total phospholipid: 0.1504 mol percent and 0.1868 mol percent and 0.1909 mol percent; PE40:6 in total phospholipid: 0.4282 mol percent and 0.3539 mol percent and 0.3699 mol percent; PE40p:4 in total phospholipid: 0.1736 mol percent and 0.1769 mol percent and 0.3102 mol percent; PE40p:5 in total phospholipid: 0.2893 mol percent and 0.2064 mol percent and 0.3341 mol percent; PE40p:6 in total phospholipid: 0.6018 mol percent and 0.6095 mol percent and 0.4892 mol percent; PE42:7 in total phospholipid: 0.06943 mol percent and 0.05898 mol percent and 0.09545 mol percent; PE42p:4 in total phospholipid: 0.09258 mol percent and 0.1081 mol percent and 0.1074 mol percent; PI 32:1 in total phospholipid: 0.01515 mol percent and 0.01528 mol percent and 0.0154 mol percent; PI 32:2 in total phospholipid: 0.002439 mol percent and 0.002103 mol percent and 0.001294 mol percent; PI 34:1 in total phospholipid: 0.1103 mol percent and 0.114 mol percent and 0.1029 mol percent; PI 34:2 in total phospholipid: 0.0629 mol percent and 0.06982 mol percent and 0.06458 mol percent; PI 36:1 in total phospholipid: 0.1503 mol percent and 0.1538 mol percent and 0.1543 mol percent; PI 36:2 in total phospholipid: 0.3719 mol percent and 0.3721 mol percent and 0.3402 mol percent; PI 36:3 in total phospholipid: 0.1684 mol percent and 0.1865 mol percent and 0.158 mol percent; PI 36:4 in total phospholipid: 0.03864 mol percent and 0.0429 mol percent and 0.03921 mol percent; PI 38:2 in total phospholipid: 0.3564 mol percent and 0.36 mol percent and 0.319 mol percent; PI 38:3 in total phospholipid: 1.005 mol percent and 1.022 mol percent and 0.9636 mol percent; PI 38:4 in total phospholipid: 0.3607 mol percent and 0.3811 mol percent and 0.3385 mol percent; PI 38:5 in total phospholipid: 0.05186 mol percent and 0.04823 mol percent and 0.04943 mol percent; PI 38:6 in total phospholipid: 0.006419 mol percent and 0.006589 mol percent and 0.006082 mol percent; PI 40:3 in total phospholipid: 0.02721 mol percent and 0.02636 mol percent and 0.02342 mol percent; PI 40:4 in total phospholipid: 0.01374 mol percent and 0.0136 mol percent and 0.01449 mol percent; PI 40:5 in total phospholipid: 0.006419 mol percent and 0.00673 mol percent and 0.006341 mol percent; PI 40:6 in total phospholipid: 0.008088 mol percent and 0.005328 mol percent and 0.005047 mol percent; PS(sum) in total phospholipid: 2.6184 mol percent and 2.721 mol percent and 2.696 mol percent; PS:34:1 in total phospholipid: 0.4034 mol percent and 0.439 mol percent and 0.4315 mol percent; PS:34:2 in total phospholipid: 0.04042 mol percent and 0.03854 mol percent and 0.04968 mol percent; PS:36:1 in total phospholipid: 1.063 mol percent and 1.166 mol percent and 1.107 mol percent; PS:36:2 in total phospholipid: 0.3989 mol percent and 0.3832 mol percent and 0.387 mol percent; PS:36:3 in total phospholipid: 0.02599 mol percent and 0.02171 mol percent and 0.02615 mol percent; PS:36:4 in total phospholipid: 0.004537 mol percent and 0.005316 mol percent and 0.006102 mol percent; PS:38:2 in total phospholipid: 0.2194 mol percent and 0.2087 mol percent and 0.231 mol percent; PS:38:3 in total phospholipid: 0.1497 mol percent and 0.1471 mol percent and 0.1469 mol percent; PS:38:4 in total phospholipid: 0.05651 mol percent and 0.07531 mol percent and 0.06102 mol percent; PS:38:5 in total phospholipid: 0.007425 mol percent and 0.01063 mol percent and 0.01438 mol percent; PS:40:4 in total phospholipid: 0.07342 mol percent and 0.05892 mol percent and 0.05971 mol percent; PS:40:5 in total phospholipid: 0.04908 mol percent and 0.05626 mol percent and 0.06189 mol percent; PS:40:6 in total phospholipid: 0.1089 mol percent and 0.09746 mol percent and 0.1011 mol percent; PS:40:7 in total phospholipid: 0.01732 mol percent and 0.0124 mol percent and 0.01264 mol percent; Total PC + lysoPC in total phospholipid: 67.6 mol percent and 68.89 mol percent and 64.689 mol percent; Total PE + lysoPE in total phospholipid: 26.98 mol percent and 25.52 mol percent and 29.98 mol percent; Total PI + lysoPI in total phospholipid: 2.796 mol percent and 2.866 mol percent and 2.638 mol percent
